According to patent publication US9918990B2, “Substituted pyrrolo[2,3-c]pyridines and pyrazolo[3,4-c]pyridines as BET protein inhibitors” (Incyte Corporation, priority 2013, dated 2018):
Structures can show the parent of a compound that is named as a salt.

Assays:
BRD4-BD2 = BRD4-BD2 (Homo sapiens (Human), UniProt O60885); assay: BRD4 AlphaScreen assay, BRD4-BD2; format: binding; settings: H4Ac4 peptide, 75 min, room temperature, read-out: BRD4 BD-2 enzyme IC50
Method: (§1) BRD4-BD1 and BRD4-BD2 assays were conducted in white 384-well polystyrene plate in a final volume of 20 μL for BD1 and 40 μL for BD2. Inhibitors were first serially diluted in DMSO and added to the plate wells before the addition of other reaction components. […] After plate sealing, the plate was incubated in the dark at room temperature for 75 min. before reading on a PHERAstar FS plate reader (BMG Labtech). IC50 determination was performed by fitting the curve of percent control activity versus the log of the inhibitor concentration using the GraphPad Prism 5.0 software.

KMS.12.BM cells = assay: KMS.12.BM cell viability assay (Cell Titer-GLO, ATP quantitation); format: cell-based; settings: Homo sapiens, 72 h, 3 days, concentration required for 50% cell death, read-out: KMS cellular IC50
Method: KMS.12.BM cell line (human myeloma) was purchased from JCRB (Osaka, Japan) and maintained in RPMI with 10% FBS culture medium. To measure the cytotoxic activity of the compounds through ATP quantitation, the KMS.12.BM cells are plated in the RPMI culture medium at 5000 cells/well/per 100 μL into a 96-well polystyrene clear black tissue culture plate (Greiner-bio-one through VWR, NJ), in the presence or absence of a concentration range of test compounds. After 3 days, […] Cell Titer-GLO Luminescent (Promega, Madison, Wis.) cell culture agent is added to each well for 10 minutes at room temperature to stabilize the luminescent signal. This determines the number of viable cells in culture based on quantitation of the ATP present, which signals the presence of metabolically active cells. Luminescence is measured with the Top Count 384 (Packard Bioscience through Perkin Elmer, Boston, Mass.). Compound inhibition is determined relative to cells cultured with no drug and the IC50 is reported as the compound concentration required for 50% cell death. IC50 data for the Examples is presented in Table 9 as determined by Assay B1.

C-myc = assay: KMS.12.BM C-myc ELISA assay; format: cell-based; settings: Homo sapiens; KMS.12.BM cells, 2 hours, concentration required for 50% C-myc inhibition
Method: KMS.12.BM cell line (human myeloma) was purchased from JCRB (Osaka, Japan) and maintained in RPMI with 10% FBS culture medium. To measure the C-myc inhibitory activity of the compounds, the KMS.12.BM cells are plated in the RPMI culture medium at 75000 cells/well/per 200 μL into a 96-well flat bottom polystyrene tissue culture plate (Corning through VWR, NJ), in the presence or absence of a concentration range of test compounds. After 2 hours, cell are pelleted and lysed with Cell Extraction Buffer (BioSource, Carlsbad, Calif.) in the presence of protease inhibitors (Life Technologies, Grand Island, N.Y. and Sigma, St Louis, Mo.). Clarified lyses are tested in a C-myc commercial ELISA (Life Technologies, Grand Island, N.Y.). Compound inhibition is determined relative to cells cultured with no drug and the IC50 is reported as the compound concentration required for 50% C-myc inhibition. IC50 data for the Examples is presented in Table 10 as determined by Assay C1.

BRD4-BD1 = BRD4-BD1 (Homo sapiens (Human), UniProt O60885); assay: BRD4 AlphaScreen assay, BRD4-BD1; format: binding; settings: H4Ac4 peptide, 75 min, room temperature, read-out: BRD4 BD-1 enzyme IC50
Method: as §1

| SMILES | IC50 (BRD4-BD2) | IC50 (C-myc) | IC50 (BRD4-BD1) | IC50 (KMS.12.BM cells) |
| --- | --- | --- | --- | --- |
| Cn1cc(-c2ccc3c(ncn3C)c2Oc2ccc(F)cc2F)c2cn[nH]c2c1=O [Example 18, 4-[4-(2,4-Difluorophenoxy)-1-methyl-1H-benzimidazol-5-yl]-6-methyl-1,6-dihydro-7H-pyrazolo[3,4-c]pyridin-7-one] | < 100 nM | ≤ 1000 nM | < 100 nM | ≤ 1000 nM |
| Cn1cc(-c2ccc3c([nH]c(=O)n3C)c2OCC2CCCCC2)c2cc[nH]c2c1=O [Example 88, 4-(Cyclohexylmethoxy)-1-methyl-5-(6-methyl-7-oxo-6,7-dihydro-1H-pyrrolo[2,3-c]pyridin-4-yl)-1,3-dihydro-2H-benzimidazol-2-one] | < 100 nM | ≤ 1000 nM | < 100 nM | ≤ 1000 nM |
| Cn1cc(-c2ccc3c([nH]c(=O)n3C)c2Oc2ccc(F)cc2F)c2cc[nH]c2c1=O [Example 6, 4-(2,4-Difluorophenoxy)-1-methyl-5-(6-methyl-7-oxo-6,7-dihydro-1H-pyrrolo[2,3-c]pyridin-4-yl)-1,3-dihydro-2H-benzimidazol-2-one] | < 100 nM | ≤ 1000 nM | < 100 nM | ≤ 1000 nM |
| Cn1cc(-c2ccc3[nH]nnc3c2Oc2ccc(F)cc2F)c2cc[nH]c2c1=O [Example 8, 4-[4-(2,4-Difluorophenoxy)-1H-1,2,3-benzotriazol-5-yl]-6-methyl-1,6-dihydro-7H-pyrrolo[2,3-c]pyridin-7-one] | < 100 nM | ≤ 1000 nM | < 100 nM | ≤ 1000 nM |
| Cn1cc(-c2ccc3c(nnn3C)c2Oc2ccc(F)cc2F)c2cn[nH]c2c1=O [Example 20, 4-[4-(2,4-Difluorophenoxy)-1-methyl-1H-1,2,3-benzotriazol-5-yl]-6-methyl-1,6-dihydro-7H-pyrazolo[3,4-c]pyridin-7-one] | < 100 nM | ≤ 1000 nM | < 100 nM | ≤ 1000 nM |
| Cn1cc(-c2ccc3c(c2OCC2CCC2)n(CCCC#N)c(=O)n3C)c2cc[nH]c2c1=O [Example 61, 4-[7-(Cyclobutylmethoxy)-3-methyl-6-(6-methyl-7-oxo-6,7-dihydro-1H-pyrrolo[2,3-c]pyridin-4-yl)-2-oxo-2,3-dihydro-1H-benzimidazol-1-yl]butanenitrile] | < 100 nM | ≤ 1000 nM | < 100 nM | ≤ 1000 nM |
| COc1c(-c2cn(C)c(=O)c3[nH]ccc23)ccc2c1[nH]c(=O)n2C [Example 32, 4-Methoxy-1-methyl-5-(6-methyl-7-oxo-6,7-dihydro-1H-pyrrolo[2,3-c]pyridin-4-yl)-1,3-dihydro-2H-benzimidazol-2-one] | < 100 nM | ≤ 1000 nM | 100 to 1000 nM | ≤ 1000 nM |
| Cn1cc(-c2ccc3[nH]cnc3c2Oc2ccc(F)cc2F)c2cn[nH]c2c1=O [Example 14, 4-[4-(2,4-Difluorophenoxy)-1H-benzimidazol-5-yl]-6-methyl-1,6-dihydro-7H-pyrazolo[3,4-c]pyridin-7-one] | < 100 nM | ≤ 1000 nM | < 100 nM | ≤ 1000 nM |
| Cn1cc(-c2ccc3c([nH]c(=O)n3C)c2Oc2ccc(F)cc2F)c2cn[nH]c2c1=O [Example 21, 4-[4-(2,4-Difluorophenoxy)-1-methyl-2-oxo-2,3-dihydro-1H-benzimidazol-5-yl]-6-methyl-1,6-dihydro-7H-pyrazolo[3,4-c]pyridin-7-one] | < 100 nM | ≤ 1000 nM | < 100 nM | ≤ 1000 nM |
| Cn1cc(-c2ccc3c(ncn3C)c2Oc2ccc(F)cc2F)c2cc[nH]c2c1=O [Example 4, 4-[4-(2,4-Difluorophenoxy)-1-methyl-1H-benzimidazol-5-yl]-6-methyl-1,6-dihydro-7H-pyrrolo[2,3-c]pyridin-7-one trifluoroacetate] | < 100 nM | ≤ 1000 nM | < 100 nM | ≤ 1000 nM |
| Cn1cc(-c2ccc3[nH]c(=O)[nH]c3c2Oc2ccc(F)cc2)c2cc[nH]c2c1=O [Example 24, 4-(4-Fluorophenoxy)-5-(6-methyl-7-oxo-6,7-dihydro-1H-pyrrolo[2,3-c]pyridin-4-yl)-1,3-dihydro-2H-benzimidazol-2-one] | < 100 nM | ≤ 1000 nM | < 100 nM | ≤ 1000 nM |
| COc1c(-c2cn(C)c(=O)c3[nH]ccc23)ccc2c1n(CCC#N)c(=O)n2C [Example 54, 3-[7-Methoxy-3-methyl-6-(6-methyl-7-oxo-6,7-dihydro-1H-pyrrolo[2,3-c]pyridin-4-yl)-2-oxo-2,3-dihydro-1H-benzimidazol-1-yl]propanenitrile] | < 100 nM | ≤ 1000 nM | 100 to 1000 nM | ≤ 1000 nM |

Continued, in another order:

| IC50 (BRD4-BD2) | IC50 (C-myc) | IC50 (BRD4-BD1) | SMILES | IC50 (KMS.12.BM cells) |
| --- | --- | --- | --- | --- |
| < 100 nM | ≤ 1000 nM | < 100 nM | Cn1cc(-c2ccc3ncn(CCC#N)c3c2Oc2ccccc2)c2cc[nH]c2c1=O [Example 55, 3-[6-(6-Methyl-7-oxo-6,7-dihydro-1H-pyrrolo[2,3-c]pyridin-4-yl)-7-phenoxy-1H-benzimidazol-1-yl]propanenitrile] | ≤ 1000 nM |
| < 100 nM | ≤ 1000 nM | < 100 nM | Cn1cc(-c2ccc3c(ncn3CCN3CCOCC3)c2Oc2ccccc2)c2cc[nH]c2c1=O [Example 43, 6-methyl-4-[1-(2-morpholin-4-ylethyl)-4-phenoxy-1H-benzimidazol-5-yl]-1,6-dihydro-7H-pyrrolo[2,3-c]pyridin-7-one] | ≤ 1000 nM |
| < 100 nM | ≤ 1000 nM | < 100 nM | Cn1cc(-c2ccc3[nH]c(=O)[nH]c3c2Oc2cccc(F)c2)c2cc[nH]c2c1=O [Example 25, 4-(3-Fluorophenoxy)-5-(6-methyl-7-oxo-6,7-dihydro-1H-pyrrolo[2,3-c]pyridin-4-yl)-1,3-dihydro-2H-benzimidazol-2-one] | ≤ 1000 nM |
| < 100 nM | ≤ 1000 nM | < 100 nM | Cn1cc(-c2ccc3c([nH]c(=O)n3C)c2Oc2ccc(F)cc2)c2cc[nH]c2c1=O [Example 41, 4-(4-Fluorophenoxy)-1-methyl-5-(6-methyl-7-oxo-6,7-dihydro-1H-pyrrolo[2,3-c]pyridin-4-yl)-1,3-dihydro-2H-benzimidazol-2-one] | ≤ 1000 nM |
| < 100 nM | ≤ 1000 nM | < 100 nM | Cn1cc(-c2ccc3c([nH]c(=O)n3C)c2Oc2ccc(Cl)cc2)c2cc[nH]c2c1=O [Example 86, 4-(4-Chlorophenoxy)-1-methyl-5-(6-methyl-7-oxo-6,7-dihydro-1H-pyrrolo[2,3-c]pyridin-4-yl)-1,3-dihydro-2H-benzimidazol-2-one] | ≤ 1000 nM |
| < 100 nM | ≤ 1000 nM | < 100 nM | Cn1cc(-c2ccc3ocnc3c2Oc2ccccc2)c2cc[nH]c2c1=O [Example 96, 6-Methyl-4-(4-phenoxy-1,3-benzoxazol-5-yl)-1,6-dihydro-7H-pyrrolo[2,3-c]pyridin-7-one] | ≤ 1000 nM |
| < 100 nM | ≤ 1000 nM | < 100 nM | Cn1cc(-c2ccc3c([nH]c(=O)n3C)c2Oc2cccc(F)c2)c2cc[nH]c2c1=O [Example 40, 4-(3-Fluorophenoxy)-1-methyl-5-(6-methyl-7-oxo-6,7-dihydro-1H-pyrrolo[2,3-c]pyridin-4-yl)-1,3-dihydro-2H-benzimidazol-2-one] | ≤ 1000 nM |
| < 100 nM | ≤ 1000 nM | < 100 nM | CC(=O)NCc1nc2c(Oc3ccccc3)c(-c3cn(C)c(=O)c4[nH]ccc34)ccc2o1 [Example 104, N-{[5-(6-Methyl-7-oxo-6,7-dihydro-1H-pyrrolo[2,3-c]pyridin-4-yl)-4-phenoxy-1,3-benzoxazol-2-yl]methyl}acetamide] | ≤ 1000 nM |
| < 100 nM | ≤ 1000 nM | < 100 nM | Cn1cc(-c2ccc3c(ncn3C)c2Oc2ccccc2)c2cc[nH]c2c1=O [Example 56, 6-Methyl-4-(1-methyl-4-phenoxy-1H-benzimidazol-5-yl)-1,6-dihydro-7H-pyrrolo[2,3-c]pyridin-7-one] | ≤ 1000 nM |
